# In patent US11685912B2, “Affinity purification of glycosidase-cleaving enzymes” (TAKEDA PHARMACEUTICAL COMPANY LIMITED, priority 2018, dated 2023):
# Key:
# [1] = target: T1, α-Gal A (Homo sapiens, UniProt P06280); conditions: buffer comprising Tris at 150 mM
# T1 sequence (P06280 32-429): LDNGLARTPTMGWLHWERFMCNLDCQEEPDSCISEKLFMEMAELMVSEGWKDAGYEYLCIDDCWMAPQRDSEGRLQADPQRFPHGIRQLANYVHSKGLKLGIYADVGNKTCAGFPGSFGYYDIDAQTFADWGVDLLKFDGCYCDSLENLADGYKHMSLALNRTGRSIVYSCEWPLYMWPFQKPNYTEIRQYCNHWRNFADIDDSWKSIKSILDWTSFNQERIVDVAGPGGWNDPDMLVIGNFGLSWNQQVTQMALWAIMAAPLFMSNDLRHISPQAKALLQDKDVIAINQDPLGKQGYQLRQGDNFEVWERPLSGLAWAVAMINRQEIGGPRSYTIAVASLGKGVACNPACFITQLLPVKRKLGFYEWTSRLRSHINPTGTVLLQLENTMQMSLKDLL
# [2] = target: T1, α-Gal A; conditions: 10 mM Tris vs 0 mM Tris
# Procedure: FIG. 1 depicts Thermal Stability curves of α-Gal A at 0 mM (blue) and 10 mM (red) Tris buffer.
smiles,measurement,setting,value
"NC(CO)(CO)CO [Tris, tris(hydroxymethyl)aminomethane]",elution of α-Gal A from the affinity resin,[1],effectively eluted
same,α-Gal A thermal stability increase,[2],3 °C
